Test in all cases: Post-emergence test experiment (Table 3, 1000 g/ha)
Common to all, as to type: in vivo
Holding throughout (conditions): post-emergence spray, after 3 weeks, fresh weight inhibition

Assay [1] relates to Leptochloa chinensis. Put shortly: (§1)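 Activity graded levels 0-5 by fresh-weight inhibition (level 5 above 85%, level 0 below 5%), assessed 3 weeks after treatment. Plants grown in greenhouse pots were sprayed post-emergence at 2-3 leaves using acetone/tween-80 solutions with methyl oleate synergist (1.5 L/ha).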
For assay [2], the system named is Digitaria sanguinalis. In a few lines: as §1
For assay [3], the system named is Monochoria vaginalis. In a few lines:
as §1

For assay [4], the system named is Galium spurium. Put shortly: as §1
Assay [5] relates to Setaria viridis. Put shortly: as §1
In assay [6] the test system is Abutilon theophrasti. In a few lines:
as §1

In the case of `CCOC(=O)CSC(=O)C(C)Oc1nc(F)c(Cl)c(N)c1Cl` (stereo not drawn) [Compound 94], in assay [1], the “Activity level (growth inhibition rate) Leptochloa chinensis” value is reported as 5 (Level 5: the growth inhibition rate is greater than 85%). Also, in assay [2], the “Activity level (growth inhibition rate) Digitaria sanguinalis” value was 5 (Level 5: the growth inhibition rate is greater than 85%). Besides, in assay [3], the “Activity level (growth inhibition rate) Monochoria Vaginalis” value is recorded as 5 (Level 5: the growth inhibition rate is greater than 85%). In addition, the “Activity level (growth inhibition rate) Galium spurium” value in assay [4] is recorded as 5 (Level 5: the growth inhibition rate is greater than 85%). The “Activity level (growth inhibition rate) Setaria viridis” value in assay [5] is 5 (Level 5: the growth inhibition rate is greater than 85%). Also, the “Activity level (growth inhibition rate) Abutilon theophrasti” value in assay [6] was 5 (Level 5: the growth inhibition rate is greater than 85%).

For `COC(=O)C(C)SC(=O)C(C)Oc1nc(F)c(Cl)c(N)c1Cl` (stereo not drawn) [Compound 95], the “Activity level (growth inhibition rate) Leptochloa chinensis” value in assay [1] is on record as 5 (Level 5: the growth inhibition rate is greater than 85%). The “Activity level (growth inhibition rate) Digitaria sanguinalis” value in assay [2] is given as 5 (Level 5: the growth inhibition rate is greater than 85%). In addition, the “Activity level (growth inhibition rate) Monochoria Vaginalis” value in assay [3] was 5 (Level 5: the growth inhibition rate is greater than 85%). Moreover, in assay [4], the “Activity level (growth inhibition rate) Galium spurium” value is 5 (Level 5: the growth inhibition rate is greater than 85%). Further, the “Activity level (growth inhibition rate) Setaria viridis” value in assay [5] is 5 (Level 5: the growth inhibition rate is greater than 85%). In assay [6], the “Activity level (growth inhibition rate) Abutilon theophrasti” value is listed as 5 (Level 5: the growth inhibition rate is greater than 85%).

Regarding `C=CCOC(=O)C(C)(C)SC(=O)C(C)Oc1nc(F)c(Cl)c(N)c1Cl` (stereo not drawn) [Compound 96], the “Activity level (growth inhibition rate) Leptochloa chinensis” value in assay [1] is 5 (Level 5: the growth inhibition rate is greater than 85%). For the same compound, the “Activity level (growth inhibition rate) Digitaria sanguinalis” value in assay [2] is 5 (Level 5: the growth inhibition rate is greater than 85%). In addition, the “Activity level (growth inhibition rate) Monochoria Vaginalis” value in assay [3] is 5 (Level 5: the growth inhibition rate is greater than 85%). In assay [4], the “Activity level (growth inhibition rate) Galium spurium” value is on record as 5 (Level 5: the growth inhibition rate is greater than 85%). In assay [5], the “Activity level (growth inhibition rate) Setaria viridis” value is listed as 5 (Level 5: the growth inhibition rate is greater than 85%). For the same compound, in assay [6], the “Activity level (growth inhibition rate) Abutilon theophrasti” value is on record as 5 (Level 5: the growth inhibition rate is greater than 85%).

For the compound `CC(Oc1nc(F)c(Cl)c(N)c1Cl)C(=O)SCC(=O)N(C)C` (stereo not drawn) [Compound 99], the “Activity level (growth inhibition rate) Leptochloa chinensis” value in assay [1] is reported as 5 (Level 5: the growth inhibition rate is greater than 85%). Also, the “Activity level (growth inhibition rate) Digitaria sanguinalis” value in assay [2] is 5 (Level 5: the growth inhibition rate is greater than 85%). For the same compound, in assay [3], the “Activity level (growth inhibition rate) Monochoria Vaginalis” value is reported as 5 (Level 5: the growth inhibition rate is greater than 85%). Further, in assay [4], the “Activity level (growth inhibition rate) Galium spurium” value was 5 (Level 5: the growth inhibition rate is greater than 85%). Further, in assay [5], the “Activity level (growth inhibition rate) Setaria viridis” value was 5 (Level 5: the growth inhibition rate is greater than 85%). In assay [6], the “Activity level (growth inhibition rate) Abutilon theophrasti” value is given as 5 (Level 5: the growth inhibition rate is greater than 85%).

For `CC(Oc1nc(F)c(Cl)c(N)c1Cl)C(=O)SC(N)=O` (stereo not drawn) [Compound 100], the “Activity level (growth inhibition rate) Leptochloa chinensis” value in assay [1] was 5 (Level 5: the growth inhibition rate is greater than 85%). Further, the “Activity level (growth inhibition rate) Digitaria sanguinalis” value in assay [2] is listed as 5 (Level 5: the growth inhibition rate is greater than 85%). For the same compound, the “Activity level (growth inhibition rate) Monochoria Vaginalis” value in assay [3] is recorded as 5 (Level 5: the growth inhibition rate is greater than 85%). Besides, in assay [4], the “Activity level (growth inhibition rate) Galium spurium” value is given as 5 (Level 5: the growth inhibition rate is greater than 85%). Also, in assay [5], the “Activity level (growth inhibition rate) Setaria viridis” value is on record as 5 (Level 5: the growth inhibition rate is greater than 85%). The “Activity level (growth inhibition rate) Abutilon theophrasti” value in assay [6] is 5 (Level 5: the growth inhibition rate is greater than 85%).
